In data set [1] the test system is Psoriasis susceptibility related RNA Gene Induced by Stress (PRINS). Put plainly: PRINS expression in human psoriatic tissue transplants on SCID mice. Type of data set: in vivo, SCID mice bearing human psoriatic tissue. As to conditions: for PRINS: control 49. The protocol:
(§1) In order to examine efficacy of the (−) cis-[4-[2-amino-6-(cyclopropylamino)-9H-purin-9-yl]-2-cyclopentene-1-hydroxymethyl acetate in mice, male and female SCID mice (24 to 28 gms) 6 to 8 weeks old were purchased from Charles River Laboratory (Wilmington, Mass.). The animals were kept in standard rodent cages with isolator tops at 18-26° C., and a relative humidity of 30-70% on a 12 hour light/12 hour dark cycle. Mice were given rodent chow and water ad libitum. […] Suitable animals were selected for the assigned study.
(§2) Mice were subjected to total body irradiation to mildly suppress immune system at 120 rads per animal in a Gamma Cell Radiator. Mice were identified by ear punching.
(§3) 24 Hours after the TBI, a 5 mm×5 mm cut of the human psoriatic tissue was transplanted on the skin of the mice, under ketamine/xylazine anesthesia. The tissues were adherent by using a skin cement. All animals survived the anesthesia and the surgery for the experiment. The complete fusion of the tissues was achieved by day 27. During treatments, mice were observed daily for any adverse affects. Mice body weights were taken prior to treatment and every other day during the post treatment. If an animal became unwell, any treatment of that animal was suspended. If there was no recovery, the animal was sacrificed. […] Mice transplant area size measurements were taken prior to treatment and every other day during and post treatment. The same scientist was responsible for taking the measurements throughout the study.
(§4) Groups of 5 male mice and 5 female mice bearing psoriatic tissues were treated with either (−) cis-[4-[2-amino-6-(cyclopropylamino)-9H-purin-9-yl]-2-cyclopentene-1-hydroxymethyl acetate (Prurisol) alone or methotrexate (MTX) according to the schedule below. Another group of mice remained untreated to serve as controls.
(§5) Prurisol was administered orally (PO) to the mice, along with the topical application at 8 hour intervals on the effected area. […] In psoriasis, anti-apoptotic protein G1P3 is over expressed, which is regulated by the non-coding RNA. Psoriasis susceptibility related RNA Gene Induced by Stress (PRINS) was examined in control animal's transplants and treated ones (the expression in psoriatic plaques will be 10 times higher), and results from these studies are shown below.

A further data set has as its system IL-20. Put plainly: IL-20 in tissue measured by ELISA, psoriatic xenograft SCID mice. Format: in vivo, SCID mice bearing human psoriatic tissue. As to conditions: for IL-20: ELISA, control 178; for reduction of IL-20 concentration in tissue: versus control. The method, then: as §1, §2, §3, §4
IL-20 was also measured using ELISA technique and data is also shown below.
A general note: In an ELISA, binding on a coated surface is turned into a signal by an enzyme label.

The next data set can be described thus: Storage stability. The conditions noted are these: stored at ambient temperature, protected from light. Type of data set: physicochemical.
Data set [2] is described as follows: Weight changes of treated mice. Format: in vivo, SCID mice. The protocol: as §3, §5
The next data set deals with human psoriatic tissue. Put plainly: Recovery from psoriasis in SCID mice implanted with human psoriatic tissue. Format: in vivo. The conditions noted are these: 10 mg, one time per day or BID. The protocol:
as §1, §2
24 Hours after the TBI, a 5 mm×5 mm cut of the human psoriatic tissue was transplanted on the skin of the mice, under ketamine/xylazine anesthesia. The tissues were adherent by using a skin cement. All animals survived the anesthesia and the surgery for the experiment. The complete fusion of the tissues was achieved by day 27. During treatments, mice were observed daily for any adverse affects. Mice body weights were taken prior to treatment and every other day during the post treatment. If an animal became unwell, any treatment of that animal was suspended. If there was no recovery, the animal was sacrificed. […]

Data set [3] in a line: Oral bioavailability and disposition of Prurisol. As to conditions: in vivo.
[4] abbreviates: Prurisol 10 mg/kg, MTX 7.5 mg/kg.

This is an account of results in US8895569B2, “Carbocyclic nucleosides and their pharmaceutical use and compositions” (Cellceutix Corporation, priority 2012, dated 2014).

Compound `CN(Cc1cnc2nc(N)nc(N)c2n1)c1ccc(C(=O)N[C@@H](CCC(=O)O)C(=O)O)cc1` [MTX, methotrexate, reference compound] returned a PRINS in data set [1] (setting [4]) of 28. In the data set with IL-20 (setting [4]), this compound gave an IL-20 of 127. Also, the “reduction of IL-20 concentration in tissue” value in the data set on IL-20 is listed as 1.4 fold.

In general, bioavailability refers to the share of a dose that reaches the circulation, judged against a reference dose that is usually intravenous. Regarding `Nc1nc(NC2CC2)c2ncn([C@H]3C=C[C@@H](COC(=O)CO)C3)c2n1` [Prurisol], the PRINS in data set [1] (setting [4]) is on record as 24; in data set [1] (Prurisol × 2 (2×10 mg/kg)), 5. For the same compound, the “PRINS reduction in comparison to methotrexate” value in data set [1] (in vivo) was “reduces PRINS significantly”. In addition, the stability entry in “Storage stability” is on record as “stable”. The weight loss entry in data set [2] (5 mg/kg on days 11 to 35 and 20 mg/kg topically) is “no weight loss”. Further, the “weight loss due to administration” value in data set [2] (orally (PO) along with topical application at 8 hour intervals) was “within acceptable limits”. Moreover, the “recovery from psoriasis (skin appearance, FIG. 6)” value in the data set with human psoriatic tissue is “recovered from psoriasis”. Also, the “crossing the blood brain barrier” value in data set [3] is listed as “capable of crossing the blood brain barrier”. In addition, in data set [3], the metabolism route entry is listed as “metabolized primarily through alcohol dehydrogenase or glucuronyl transferase”. Besides, in data set [3] (oral, read-out: oral bioavailability (% F)), the bioavailability worked out at 83%. Besides, the IL-20 with IL-20 (setting [4]) is on record as 54; in the data set on IL-20 (Prurisol × 2 (2×10 mg/kg)), 18. For the same compound, the “reduction of IL-20 concentration in tissue” value in the data set with IL-20 is 3 fold.
